Laboratory results published in US7112586B2, “Substituted diamine derivatives useful as motilin antagonists” (Ortho-McNeil Pharmaceutical, Inc., priority 2000, dated 2006).
pIC50: −log10 of the molar value.

Molecular target: T1, Motilin Receptor (Oryctolagus cuniculus, UniProt G1T803)
T1 construct: The muscle tissue was homogenized in 10 volumes of 50 mM Tris-Cl; from tissue; host or cells: rabbit colon smooth muscle, crude membrane homogenate
Assay: Motilin receptor binding, rabbit colon membranes, 125I porcine motilin
Parameters: Rabbit Colon % Inh / inhibition / % Inh (Rabbit colon): dose or concentration left out as unconfirmed
Conditions: rabbit colon membranes; for inhibition: read-out: Rabbit Colon % Inh; for pIC50: read-out: Rabbit Colon IC50
Description: Rabbit colon was removed, dissected free from the mucosa and serosa, and diced into small pieces. The muscle tissue was homogenized in 10 volumes of 50 mM Tris-Cl, 10 mM MgCl2, 0.1 mg/ml bacitracin, and 0.25 mM Peflabloc, at pH 7.5 in a Polytron (29000 rpm, 4×15 seconds). The homogenate was centrifuged at 1000×g for 15 minutes and the supernatant discarded. The pellet was washed twice before being suspended in homogenizing buffer. The crude homogenate was resuspended through a 23 gauge needle before storing at −80° C. […] After 60 minutes at 30° C., the samples were cooled in ice, centrifuged in the cold at 13000×g for 1 minute. The pellet was washed twice with 1 ml of cold saline, the supernatant was aspirated, and the pellet at the bottom of the tube counted in a gamma counter. Non-specific binding was determined by the inclusion of 1 mM of unlabeled motilin. IC50 values were determined from Kaleidograph curves.

T1 sequence (G1T803 1-400): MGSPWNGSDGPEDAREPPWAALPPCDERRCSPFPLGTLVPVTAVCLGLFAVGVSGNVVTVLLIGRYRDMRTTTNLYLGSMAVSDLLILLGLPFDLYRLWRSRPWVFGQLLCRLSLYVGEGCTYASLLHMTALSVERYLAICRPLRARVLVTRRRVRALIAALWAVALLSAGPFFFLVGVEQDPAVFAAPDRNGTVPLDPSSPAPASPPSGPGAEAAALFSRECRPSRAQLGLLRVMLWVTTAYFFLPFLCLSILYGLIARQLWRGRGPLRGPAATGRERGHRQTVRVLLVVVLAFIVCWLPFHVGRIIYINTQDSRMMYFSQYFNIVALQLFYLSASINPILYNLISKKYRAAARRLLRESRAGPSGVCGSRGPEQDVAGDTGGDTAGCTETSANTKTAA

Structure (SMILES): COc1cccc(C(=O)N(Cc2cccc(Cl)c2)C2CCCC(CN(C(=O)c3ccc(F)cc3)c3cccc(OCCN4CCOCC4)c3)C2)c1 (stereo not shown) [compound 106]
- inhibition: 69%
- pIC50: 5.98

Structure (SMILES): O=C(c1ccc(F)cc1)N(CC1CCCC(N(Cc2cccc(Cl)c2)C(=O)c2cc(C(F)(F)F)cc(C(F)(F)F)c2)C1)c1cccc(OCCN2CCOCC2)c1 (stereo not shown) [compound 107]
- Rabbit Colon % Inh: 29%

Structure (SMILES): O=C(c1ccc(F)cc1)N(CC1CCCC(N(Cc2cccc(Cl)c2)C(=O)C(F)(F)F)C1)c1cccc(OCCN2CCOCC2)c1 (stereo not shown) [compound 108]
- inhibition: 70%
- pIC50: 6.09

Structure (SMILES): O=C(c1ccc(F)cc1)N(CC1CCCC(N(Cc2cccc(Cl)c2)C(=O)c2ccc(-c3ccccc3)cc2)C1)c1cccc(OCCN2CCOCC2)c1 (stereo not shown) [compound 109]
- Rabbit Colon % Inh: 27%

Structure (SMILES): O=C(c1ccc(F)cc1)N(CC1CCCC(N(Cc2cccc(Cl)c2)C(=O)C(Cl)(Cl)Cl)C1)c1cccc(OCCN2CCOCC2)c1 (stereo not shown) [compound 111]
- inhibition: 72%
- pIC50: 6.06

Structure (SMILES): O=C(c1ccc(F)cc1)N(CC1CCCC(N(Cc2ccccc2)C(=O)C(c2ccccc2)c2ccccc2)C1)c1cccc(OCCN2CCOCC2)c1 (stereo not shown) [compound 112]
- inhibition: 70%
- pIC50: 6.32

Structure (SMILES): O=C(c1ccc(F)cc1)N(CC1CCCC(N(Cc2ccccc2)C(=O)c2cccc([N+](=O)[O-])c2)C1)c1cccc(OCCN2CCOCC2)c1 (stereo not shown) [compound 113]
- Rabbit Colon % Inh: 51%

Structure (SMILES): O=C(c1ccc(F)cc1)N(CC1CCCC(N(Cc2ccccc2)C(=O)c2ccc3ccccc3c2)C1)c1cccc(OCCN2CCOCC2)c1 (stereo not shown) [compound 114]
- Rabbit Colon % Inh: 49%

Structure (SMILES): O=C(c1ccc(F)cc1)N(CC1CCCC(N(Cc2ccccc2)C(=O)CCc2ccccc2)C1)c1cccc(OCCN2CCOCC2)c1 (stereo not shown) [compound 115]
- Rabbit Colon % Inh: 26%

Structure (SMILES): CC(C)(C)C(=O)N(Cc1ccccc1)C1CCCC(CN(C(=O)c2ccc(F)cc2)c2cccc(OCCN3CCOCC3)c2)C1 (stereo not shown) [compound 116]
- inhibition: 61%
- pIC50: 6.11

Structure (SMILES): COc1cccc(C(=O)N(Cc2ccccc2)C2CCCC(CN(C(=O)c3ccc(F)cc3)c3cccc(OCCN4CCOCC4)c3)C2)c1 (stereo not shown) [compound 117]
- Rabbit Colon % Inh: 17%

Structure (SMILES): O=C(c1ccc(F)cc1)N(CC1CCCC(N(Cc2ccccc2)C(=O)c2ccc(-c3ccccc3)cc2)C1)c1cccc(OCCN2CCOCC2)c1 (stereo not shown) [compound 118]
- Rabbit Colon % Inh: 58%

Structure (SMILES): O=C(c1ccc(F)cc1)N(CC1CCCC(N(Cc2ccccc2)C(=O)c2cc(C(F)(F)F)cc(C(F)(F)F)c2)C1)c1cccc(OCCN2CCOCC2)c1 (stereo not shown) [compound 119]
- Rabbit Colon % Inh: 22%

Structure (SMILES): O=C(c1ccc(F)cc1)N(CC1CCCC(N(Cc2ccccc2)C(=O)C(F)(F)F)C1)c1cccc(OCCN2CCOCC2)c1 (stereo not shown) [compound 120]
- inhibition: 69%
- pIC50: 6.02

Structure (SMILES): O=C(c1ccc(F)cc1)N(CC1CCCC(N(Cc2ccccc2)C(=O)C(Cl)(Cl)Cl)C1)c1cccc(OCCN2CCOCC2)c1 (stereo not shown) [compound 122]
- inhibition: 64%
- pIC50: 6.08

Structure (SMILES): O=C(c1ccc(F)cc1)N(CC1CCCC(N(Cc2ccccc2)S(=O)(=O)c2ccc3ccccc3c2)C1)c1cccc(OCCN2CCOCC2)c1 (stereo not shown) [compound 123]
- Rabbit Colon % Inh: 8%

Structure (SMILES): O=C(c1ccc(F)cc1)N(CC1CCCC(N(Cc2ccccc2)C(=O)c2ccco2)C1)c1cccc(OCCN2CCOCC2)c1 (stereo not shown) [compound 124]
- inhibition: 70%
- pIC50: 6.04

Structure (SMILES): O=C(c1ccc(F)cc1)N(CC1CCCC(N(Cc2ccccc2)C(=O)Nc2ccccc2)C1)c1cccc(OCCN2CCOCC2)c1 (stereo not shown) [compound 125]
- Rabbit Colon % Inh: 25%

Structure (SMILES): O=C(CCC(=O)N(Cc1ccc(F)cc1)c1cccc(OCCN2CCOCC2)c1)N(CCc1ccccc1)Cc1ccccc1 [compound 128]
- inhibition: 75%
- pIC50: 6.64

Structure (SMILES): O=C(CCCC(=O)N(Cc1ccc(F)cc1)c1cccc(OCCN2CCOCC2)c1)N(CCc1ccccc1)Cc1ccccc1 [compound 129]
- inhibition: 90%
- pIC50: 7.24

Structure (SMILES): O=C(CCc1ccccc1)N[C@@H](Cc1ccccc1)C(=O)N(Cc1ccc(F)cc1)c1cccc(OCCN2CCOCC2)c1 [compound 130]
- Rabbit Colon % Inh: 8%

Structure (SMILES): O=C([C@H](Cc1ccccc1)NC(=O)C(Cl)(Cl)Cl)N(Cc1ccc(F)cc1)c1cccc(OCCN2CCOCC2)c1 [compound 131]
- Rabbit Colon % Inh: 19%

Structure (SMILES): O=C(N[C@@H](Cc1ccccc1)C(=O)N(Cc1ccc(F)cc1)c1cccc(OCCN2CCOCC2)c1)c1ccc(-c2ccccc2)cc1 [compound 132]
- Rabbit Colon % Inh: 10%

Structure (SMILES): O=C(N[C@@H](Cc1ccccc1)C(=O)N(Cc1ccc(F)cc1)c1cccc(OCCN2CCOCC2)c1)C(c1ccccc1)c1ccccc1 [compound 133]
- Rabbit Colon % Inh: 6%

Structure (SMILES): COc1cccc(CC(=O)N[C@@H](Cc2ccccc2)C(=O)N(Cc2ccc(F)cc2)c2cccc(OCCN3CCOCC3)c2)c1 [compound 134]
- Rabbit Colon % Inh: 0%

Structure (SMILES): O=C([C@H](Cc1ccccc1)NS(=O)(=O)c1ccc(-c2ccccc2)cc1)N(Cc1ccc(F)cc1)c1cccc(OCCN2CCOCC2)c1 [compound 135]
- Rabbit Colon % Inh: 8%

Structure (SMILES): O=C(c1cccc(CN(C(=O)c2ccc(F)cc2)c2cccc(OCCN3CCOCC3)c2)c1)N(CCc1ccccc1)Cc1ccccc1 [compound 136]
- Rabbit Colon % Inh: 43%

Structure (SMILES): O=C(NC(c1ccccc1)c1ccccc1)c1cccc(CN(C(=O)c2ccc(F)cc2)c2cccc(OCCN3CCOCC3)c2)c1 [compound 137]
- Rabbit Colon % Inh: 30%

Structure (SMILES): O=C(NCCc1ccccc1)c1cccc(CN(C(=O)c2ccc(F)cc2)c2cccc(OCCN3CCOCC3)c2)c1 [compound 138]
- inhibition: 36%

Structure (SMILES): CC(C)(C)CN(Cc1ccccc1)C(=O)c1cccc(CN(C(=O)c2ccc(F)cc2)c2cccc(OCCN3CCOCC3)c2)c1 [compound 140]
- Rabbit Colon % Inh: 45%

Structure (SMILES): CC(C)(C)CN(Cc1cccc(Cl)c1)C(=O)c1cccc(CN(C(=O)c2ccc(F)cc2)c2cccc(OCCN3CCOCC3)c2)c1 [compound 141]
- Rabbit Colon % Inh: 21%

Structure (SMILES): O=C(c1ccc(F)cc1)N(Cc1cccc(C(=O)N2CCc3ccccc3C2c2ccccc2)c1)c1cccc(OCCN2CCOCC2)c1 (stereo not shown) [compound 142]
- Rabbit Colon % Inh: 17%

Structure (SMILES): O=C(CCCN(C(=O)c1ccc(F)cc1)c1cccc(OCCN2CCOCC2)c1)NC(c1ccccc1)c1ccccc1 [compound 143]
- Rabbit Colon % Inh: 0%

Structure (SMILES): O=C(CCCN(C(=O)c1ccc(F)cc1)c1cccc(OCCN2CCOCC2)c1)N(CCCc1ccccc1)Cc1ccccc1 [compound 144]
- Rabbit Colon % Inh: 54%

Structure (SMILES): CC(C)(C)CN(Cc1ccccc1)C(=O)CCCN(C(=O)c1ccc(F)cc1)c1cccc(OCCN2CCOCC2)c1 [compound 145]
- Rabbit Colon % Inh: 35%

Structure (SMILES): COc1ccc(CCN(Cc2ccccc2)C(=O)CCCN(C(=O)c2ccc(F)cc2)c2cccc(OCCN3CCOCC3)c2)cc1 [compound 146]
- Rabbit Colon % Inh: 32%

Structure (SMILES): COc1ccc(CCN(Cc2cccc(Cl)c2)C(=O)CCCN(C(=O)c2ccc(F)cc2)c2cccc(OCCN3CCOCC3)c2)cc1 [compound 147]
- inhibition: 61%
- pIC50: 6.31

Structure (SMILES): O=C(c1ccc(F)cc1)N(CCCC(=O)N1CCc2ccccc2C1c1ccccc1)c1cccc(OCCN2CCOCC2)c1 (stereo not shown) [compound 148]
- Rabbit Colon % Inh: 19%

Structure (SMILES): O=C(CCCN(C(=O)c1ccc(F)cc1)c1cccc(OCCN2CCOCC2)c1)N1CCN(C(c2ccccc2)c2ccc(Cl)cc2)CC1 (stereo not shown) [compound 149]
- Rabbit Colon % Inh: 27%

Structure (SMILES): O=C([C@H](Cc1ccccc1)N(Cc1ccccc1)C(=O)C(Cl)(Cl)Cl)N(Cc1ccc(F)cc1)c1cccc(OCCN2CCOCC2)c1 [compound 151]
- Rabbit Colon % Inh: 1%

Structure (SMILES): O=C([C@H](Cc1ccccc1)N(Cc1ccccc1)C(=O)CCc1ccccc1)N(Cc1ccc(F)cc1)c1cccc(OCCN2CCOCC2)c1 [compound 152]
- Rabbit Colon % Inh: 0%

Structure (SMILES): O=C(C1CC=CCC1C(=O)N(Cc1ccc(F)cc1)c1cccc(OCCN2CCOCC2)c1)N(CCc1ccccc1)Cc1ccccc1 (stereo not shown) [compound 155]
- Rabbit Colon % Inh: 34%

Structure (SMILES): O=C(Nc1cccc(OCCN2CCOCC2)c1)C1=C(C(=O)N(CCc2ccccc2)Cc2ccccc2)CCC1 [compound 156]
- Rabbit Colon % Inh: 18%

Structure (SMILES): O=C(CCCC(=O)N(Cc1ccc(F)cc1)c1cccc(OCCN2CCOCC2)c1)N(CCCc1ccccc1)Cc1ccccc1 [compound 159]
- inhibition: 83%
- pIC50: 6.56

Structure (SMILES): O=C(CCC(=O)N(Cc1ccccc1F)c1cccc(OCCN2CCOCC2)c1)N(CCc1ccccc1)Cc1ccccc1 [compound 165]
- inhibition: 63%
- pIC50: 6.26

Structure (SMILES): COc1ccc(CN(C(=O)CCC(=O)N(CCc2ccccc2)Cc2ccccc2)c2cccc(OCCN3CCOCC3)c2)cc1 [compound 166]
- Rabbit Colon % Inh: 23%

Structure (SMILES): O=C(CCC(=O)N(Cc1ccc(C(F)(F)F)cc1)c1cccc(OCCN2CCOCC2)c1)N(CCc1ccccc1)Cc1ccccc1 [compound 167]
- Rabbit Colon % Inh: 42%

Structure (SMILES): O=C(CCC(=O)N(Cc1ccc(Cl)cc1)c1cccc(OCCN2CCOCC2)c1)N(CCc1ccccc1)Cc1ccccc1 [compound 168]
- Rabbit Colon % Inh: 36%
